Each block holds one compound with its values, some of them ahead of it. Calls of active or inactive are those of the source. The calls are words filed in the database; no cut-off is given here. Peptide text beside a SMILES is read from it.
Key:
[1] = tested on: SMMC-7721; test: Antiproliferative activity against human SMMC7721 cells after 24 hrs by MTT assay; assay type: functional, cell-based; details: SMMC-7721, 24 h
[2] = tested on: HepG2; test: Antiproliferative activity against human HepG2 cells after 24 hrs by MTT assay; assay type: functional, cell-based; details: HepG2, 24 h
[3] = tested on: SMMC-7721; test: In vivo induction of apoptosis in human SMMC7721 cells xenografted in Balb/c nude mouse assessed as activation of caspase-3 dosed intraperitoneally for 32 days by IHC analysis; assay type: functional, organism-based
[4] = tested on: SMMC-7721; test: Cell cycle arrest in human SMMC7721 cells assessed as G2/M phase accumulation at 30 uM after 24 hrs by propidium iodide staining based flow cytometry relative to control; assay type: functional
[5] = tested on: SMMC-7721; test: Induction of apoptosis in human SMMC7721 cells assessed as increase in cleaved caspase-8 protein expression after 24 hrs by Western blot method; assay type: functional, cell-based
[6] = tested on: SMMC-7721; test: Induction of apoptosis in human SMMC7721 cells assessed as early apoptotic cells at 30 uM after 24 hrs by Annexin V-FITC/propidium iodide staining based flow cytometry (reference value: 2%); assay type: functional
[7] = tested on: SMMC-7721; test: Induction of morphological changes in tumor of human SMMC7721 cells xenografted Balb/c nude mouse induction of nuclei and cytoplasm non-uniform distribution at 40 mg/kg, ip for 32 days by hematoxylin/eosin staining based microscopic analysis; assay type: functional, organism-based
[8] = tested on: SMMC-7721; test: Induction of apoptosis in human SMMC7721 cells assessed as late apoptotic cells at 30 uM after 24 hrs by Annexin V-FITC/propidium iodide staining based flow cytometry (reference value: 0.7%); assay type: functional
[9] = tested on: Mus musculus; test: Toxicity in Balb/c nude mouse xenografted with human SMMC7721 cells assessed as body weight level at 8 mg/kg, ip for 32 days (reference value: 25.4 +/- 1.8 g); assay type: organism-based; details: in vivo, 768 h
[10] = tested on: SMMC-7721; test: Antitumor activity against human SMMC7721 cells xenografted in Balb/c nude mouse assessed as tumor growth inhibition dosed intraperitoneally for 32 days; assay type: functional, organism-based
[11] = tested on: SMMC-7721; test: Induction of apoptosis in human SMMC7721 cells assessed as late apoptotic cells at 10 uM after 24 hrs by Annexin V-FITC/propidium iodide staining based flow cytometry (reference value: 0.7%); assay type: functional
[12] = tested on: SMMC-7721; test: Induction of apoptosis in human SMMC7721 cells assessed as early apoptotic cells at 20 uM after 24 hrs by Annexin V-FITC/propidium iodide staining based flow cytometry (reference value: 2%); assay type: functional
[13] = tested on: SMMC-7721; test: In vivo induction of apoptosis in human SMMC7721 cells xenografted in Balb/c nude mouse at 8 to 40 mg/kg, ip for 32 days by TUNEL assay; assay type: functional, organism-based
[14] = tested on: SMMC-7721; test: Induction of apoptosis in human SMMC7721 cells assessed as early apoptotic cells at 10 uM after 24 hrs by Annexin V-FITC/propidium iodide staining based flow cytometry (reference value: 2%); assay type: functional
[15] = tested on: SMMC-7721; test: Induction of apoptosis in human SMMC7721 cells assessed as late apoptotic cells at 20 uM after 24 hrs by Annexin V-FITC/propidium iodide staining based flow cytometry (reference value: 0.7%); assay type: functional
[16] = tested on: SMMC-7721; test: Cell cycle arrest in human SMMC7721 cells assessed as G2/M phase accumulation at 10 uM after 24 hrs by propidium iodide staining based flow cytometry relative to control; assay type: functional
[17] = tested on: SMMC-7721; test: Cell cycle arrest in human SMMC7721 cells assessed as G2/M phase accumulation at 20 uM after 24 hrs by propidium iodide staining based flow cytometry relative to control; assay type: functional
[18] = tested on: SMMC-7721; test: Induction of apoptosis in human SMMC7721 cells assessed as increase in cleaved caspase-3 protein expression after 24 hrs by Western blot method; assay type: functional, cell-based
[19] = tested on: SMMC-7721; test: Induction of apoptosis in human SMMC7721 cells assessed as chromatin condensation at 10 to 30 uM after 24 hrs by DAPI staining based laser confocal microscopy; assay type: functional, cell-based
[20] = tested on: SMMC-7721; test: Induction of apoptosis in human SMMC7721 cells assessed as increase in cleaved PARP protein expression after 24 hrs by Western blot method; assay type: functional, cell-based
[21] = tested on: SMMC-7721; test: Induction of apoptosis in human SMMC7721 cells assessed as increase in cleaved caspase-9 protein expression after 24 hrs by Western blot method; assay type: functional, cell-based
[22] = tested on: SMMC-7721; test: Induction of morphological changes in tumor of human SMMC7721 cells xenografted Balb/c nude mouse assessed as reduction in number of nuclei at 40 mg/kg, ip for 32 days by hematoxylin/eosin staining based microscopic analysis; assay type: functional, organism-based
[23] = tested on: SMMC-7721; test: Antitumor activity against human SMMC7721 cells xenografted in Balb/c nude mouse assessed as tumor growth inhibition at 16 mg/kg, ip for 32 days relative to control; assay type: functional; details: SMMC-7721, ip, 768 h, read-out: TGI
[24] = tested on: SMMC-7721; test: Antitumor activity against human SMMC7721 cells xenografted in Balb/c nude mouse assessed as tumor growth inhibition at 8 mg/kg, ip for 32 days relative to control; assay type: functional; details: SMMC-7721, ip, 768 h, read-out: TGI
[25] = tested on: SMMC-7721; test: Induction of morphological changes in tumor of human SMMC7721 cells xenografted Balb/c nude mouse assessed as appearance of shrunken nuclei at 40 mg/kg, ip for 32 days by hematoxylin/eosin staining based microscopic analysis; assay type: functional, organism-based
[26] = tested on: SMMC-7721; test: Antitumor activity against human SMMC7721 cells xenografted in Balb/c nude mouse assessed as tumor growth inhibition at 40 mg/kg, ip for 32 days relative to control; assay type: functional; details: SMMC-7721, ip, 768 h, read-out: TGI
[27] = tested on: Mus musculus; test: Toxicity in Balb/c nude mouse xenografted with human SMMC7721 cells assessed as body weight level at 16 mg/kg, ip for 32 days (reference value: 25.4 +/- 1.8 g); assay type: organism-based; details: in vivo, 768 h
[28] = tested on: Mus musculus; test: Toxicity in Balb/c nude mouse xenografted with human SMMC7721 cells assessed as body weight level at 40 mg/kg, ip for 32 days (reference value: 25.4 +/- 1.8 g); assay type: organism-based; details: in vivo, 768 h
[29] = tested on: SMMC-7721; test: Cell cycle arrest in human SMMC7721 cells assessed as G2/M phase accumulation at 2.5 uM after 24 hrs by propidium iodide staining based flow cytometry relative to control; assay type: functional
[30] = tested on: SMMC-7721; test: Induction of apoptosis in human SMMC7721 cells assessed as late apoptotic cells at 0.2 uM after 24 hrs by Annexin V-FITC/propidium iodide staining based flow cytometry (reference value: 0.7%); assay type: functional
[31] = tested on: SMMC-7721; test: Induction of apoptosis in human SMMC7721 cells assessed as chromatin condensation at 0.2 uM after 24 hrs by DAPI staining based laser confocal microscopy; assay type: functional, cell-based
[32] = tested on: SMMC-7721; test: Induction of apoptosis in human SMMC7721 cells assessed as early apoptotic cells at 0.2 uM after 24 hrs by Annexin V-FITC/propidium iodide staining based flow cytometry (reference value: 2%); assay type: functional

Compound: CC(C)C[C@@H]1NC(=O)[C@H](C)NC(=O)[C@@H]2CCCN2C(=O)[C@H](CC(C)C)NC(=O)[C@H](C(C)C)NC(=O)[C@H](CC(C)C)NC(=O)[C@H](C(C)C)NC(=O)[C@H](CC(C)C)NC(=O)[C@H](CC(C)C)NC1=O (cyclo(ALLLVLVLP))
- IC50 [1]: 36.1 µM
- IC50 [2]: 55.6 µM

Compound: CC[C@H](C)[C@@H]1NC(=O)[C@@H]2CCCN2C(=O)[C@H](CC(C)C)NC(=O)[C@H](C)NC(=O)[C@H](CC(C)C)NC(=O)[C@H](C(C)C)NC(=O)[C@H](CC(C)C)NC(=O)[C@H](CC(C)C)NC(=O)[C@H](CC(C)C)NC1=O (cyclo(ALPILLLVL))
- IC50 [1]: 29.9 µM
- IC50 [2]: 29.9 µM

Compound: CC[C@H](C)[C@@H]1NC(=O)[C@@H]2CCCN2C(=O)[C@H](CC(C)C)NC(=O)[C@H](C(C)C)NC(=O)[C@H](CC(C)C)NC(=O)[C@H](C)NC(=O)[C@H](CC(C)C)NC(=O)[C@H](CC(C)C)NC(=O)[C@H](CC(C)C)NC1=O (cyclo(ALVLPILLL))
- IC50 [1]: 47.4 µM
- IC50 [2]: 40.5 µM

Compound: CC[C@H](C)[C@@H]1NC(=O)[C@@H]2CCCN2C(=O)[C@H](CC(C)C)NC(=O)[C@H](C(C)C)NC(=O)[C@H](CC(C)C)NC(=O)[C@H](C(C)C)NC(=O)[C@H](CC(C)C)NC(=O)[C@H](CC(C)C)NC1=O (cyclo(ILLVLVLP))
- IC50 [1]: 73.9 µM
- IC50 [2]: 51.7 µM

Compound: CC[C@H](C)[C@@H]1NC(=O)[C@@H]2CCCN2C(=O)[C@H](CC(C)C)NC(=O)[C@H](C(C)C)NC(=O)[C@H](CC(C)C)NC(=O)[C@H](C(C)C)NC(=O)[C@H](CC(C)C)NC1=O (cyclo(ILVLVLP))
- IC50 [1]: > 100 µM
- IC50 [2]: > 100 µM

Compound: CC[C@H](C)[C@@H]1NC(=O)[C@@H]2CCCN2C(=O)[C@H](C(C)C)NC(=O)[C@H](CC(C)C)NC(=O)[C@H](C(C)C)NC1=O (cyclo(IVLVP))
- IC50 [1]: > 100 µM
- IC50 [2]: > 100 µM

Compound: COc1cc([C@@H]2c3cc4c(cc3[C@@H](O[C@@H]3O[C@@H]5CO[C@@H](C)O[C@H]5[C@H](O)[C@H]3O)[C@H]3COC(=O)[C@H]23)OCO4)cc(OC)c1O [ETOPOSIDE]
- Activity [29]: 44.9%

Compound: CC(=O)O[C@H]1C(=O)[C@@]2(C)[C@H]([C@H](OC(=O)c3ccccc3)[C@]3(O)C[C@H](OC(=O)[C@H](O)[C@@H](NC(=O)c4ccccc4)c4ccccc4)C(C)=C1C3(C)C)[C@]1(OC(C)=O)CO[C@@H]1C[C@@H]2O [PACLITAXEL]
- Activity [30]: 3.4%
- Activity [31]: Active
- Activity [32]: 54.7 - 56.7%

Second part, led by results:

- IC50 [1]: 29.8 µM
- IC50 [2]: > 100 µM
Compound: CC[C@H](C)[C@@H]1NC(=O)[C@@H]2CCCN2C(=O)[C@H](CC(C)C)NC(=O)[C@H](C(C)C)NC(=O)[C@H](CC(C)C)NC(=O)[C@H](C(C)C)NC(=O)[C@H](CC(C)C)NC(=O)[C@H](CC(C)C)NC(=O)[C@H](C)NC1=O (cyclo(ALLVLVLPI))

- IC50 [1]: 42.8 µM
- IC50 [2]: > 100 µM
Compound: CC[C@H](C)[C@@H]1NC(=O)[C@@H]2CCCN2C(=O)[C@H](CC(C)C)NC(=O)[C@H](C(C)C)NC(=O)[C@H](CC(C)C)NC(=O)[C@H](C(C)C)NC(=O)[C@H](CC(C)C)NC(=O)[C@H](C)NC(=O)[C@H](CC(C)C)NC1=O (cyclo(ALVLVLPIL))

- IC50 [1]: 48.5 µM
- IC50 [2]: 39.4 µM
Compound: CC[C@H](C)[C@@H]1NC(=O)[C@@H]2CCCN2C(=O)[C@H](C)NC(=O)[C@H](C(C)C)NC(=O)[C@H](CC(C)C)NC(=O)[C@H](C(C)C)NC(=O)[C@H](CC(C)C)NC(=O)[C@H](CC(C)C)NC(=O)[C@H](CC(C)C)NC1=O (cyclo(APILLLVLV))

- IC50 [1]: 38.9 µM
- IC50 [2]: 38.6 µM
Compound: CC[C@H](C)[C@@H]1NC(=O)[C@@H]2CCCN2C(=O)[C@H](CC(C)C)NC(=O)[C@H](C(C)C)NC(=O)[C@H](C)NC(=O)[C@H](C(C)C)NC(=O)[C@H](CC(C)C)NC(=O)[C@H](CC(C)C)NC(=O)[C@H](CC(C)C)NC1=O (cyclo(AVLPILLLV))

- IC50 [1]: 56.1 µM
- IC50 [2]: 31.8 µM
Compound: CC[C@H](C)[C@@H]1NC(=O)[C@@H]2CCCN2C(=O)[C@H](CC(C)C)NC(=O)[C@H](C(C)C)NC(=O)[C@H](CC(C)C)NC(=O)[C@H](C(C)C)NC(=O)[C@H](C)NC(=O)[C@H](CC(C)C)NC(=O)[C@H](CC(C)C)NC1=O (cyclo(AVLVLPILL))

- IC50 [1]: 6.38 µM
- IC50 [2]: 12.2 µM
Compound: CC[C@H](C)[C@@H]1NC(=O)[C@@H]2CCCN2C(=O)[C@H](CC(C)C)NC(=O)[C@H](C(C)C)NC(=O)[C@H](CC(C)C)NC(=O)[C@H](C(C)C)NC(=O)[C@H](CC(C)C)NC(=O)[C@H](CC(C)C)NC(=O)[C@H](CC(C)C)NC1=O (cyclo(ILLLVLVLP))
- Activity [3]: Dose-dependent effect
- Activity [4]: 12%
- Activity [5]: Dose-dependent effect
- Activity [6]: 84.5 - 86.5%
- Activity [7]: Active
- Activity [8]: 2.6%
- Activity [9]: 22.2 g
- TGI [10]: Dose-dependent effect
- Activity [11]: 0.4%
- Activity [12]: 36.6 - 38.6%
- Activity [13]: Dose-dependent effect
- Activity [14]: 1.6 - 3.6%
- Activity [15]: 2.8%
- Activity [16]: 5.9%
- Activity [17]: 9.6%
- Activity [18]: Dose-dependent effect
- Activity [19]: Active
- Activity [20]: Dose-dependent effect
- Activity [21]: Dose-dependent effect
- Activity [22]: Active
- inhibition in vivo at 16 mg/kg [23]: 57%
- inhibition in vivo at 8 mg/kg [24]: 26.1%
- Activity [25]: Active
- inhibition in vivo at 40 mg/kg [26]: 67.9%
- Activity [27]: 22.7 g
- Activity [28]: 21.1 g
